Source: publication PMC12669672, “Structural insights into selective and dual antagonism of EP2 and EP4 prostaglandin receptors” (The EMBO Journal, 2025)
Where “and” joins values, the source holds several entries; their conditions need not be identical. Identical values can stand only once. Like-named read-outs stand apart in the source and are kept apart here.

Key:
Format in all cases: cell-based
EP2-I85V = molecular target: T1, EP2-I85V (Homo sapiens, UniProt P43116, I85V); experiment: GloSensor cAMP assay, antagonism of PGE2-induced cAMP, chimeric studies; conditions: single experiments 1st-3rd
T1 construct: The full-length EP2 or EP4 was cloned into the pcDNA3.1 vector; FLAG (N); expressed in transfected cells; host or cells: AD293 cells
Method: (§1) The full-length EP2 or EP4 was cloned into the pcDNA3.1 vector (Invitrogen), incorporating an N-terminal FLAG tag. AD293 cells were seeded in six-well plates containing DMEM supplemented with 10% dialyzed FBS 1 day prior to transfection. Following overnight growth, cells were transfected with a 1:1 ratio of receptor construct and GloSensor22F cAMP biosensor (Promega) plasmids.
(§2) Twenty-four hours post-transfection, the cells were transferred to CO2-independent media containing 2% GloSensor cAMP Reagent (Promega) and distributed into 384-well assay plates at a density of 4000 cells per well in 10 μL. […] The plates were then incubated at 37 °C for an additional hour before luminescence measurements were taken using an EnVision plate reader.
(§3) Data analysis was performed using GraphPad Prism software v8.0.1. A nonlinear regression analysis, employing a sigmoidal dose–response model, was conducted to determine the Emax values and half-maximum inhibitory concentrations (IC50) for each compound tested.

EP2-L301I = molecular target: T2, EP2-L301I (Homo sapiens, UniProt P43116, L301I); experiment: as above; conditions: single experiments 1st-3rd
T2 construct: The full-length EP2 or EP4 was cloned into the pcDNA3.1 vector; FLAG (N); expressed in transfected cells; host or cells: AD293 cells
Method: as §1, §2, §3

EP2-M116L = molecular target: T3, EP2-M116L (Homo sapiens, UniProt P43116, M116L); experiment: as above; conditions: single experiments 1st-3rd
T3 construct: The full-length EP2 or EP4 was cloned into the pcDNA3.1 vector; FLAG (N); expressed in transfected cells; host or cells: AD293 cells
Method: as §1, §2, §3

[1] = molecular target: T4, constitutively active EP4 WT (Homo sapiens, UniProt P35408); experiment: GloSensor cAMP assay, inhibition of constitutive activity
T4 construct: The full-length EP2 or EP4 was cloned into the pcDNA3.1 vector (Invitrogen), incorporating an N-terminal FLAG tag; expressed in transfected cells; host or cells: AD293

EP2 M116A = molecular target: T5, EP2 M116A (Homo sapiens, UniProt P43116, M116A); experiment: GloSensor cAMP assay, antagonism of PGE2-induced cAMP; conditions: for cAMP activity (∆pIC50 from EP2 WT): TG6-129, M116A
T5 construct: The full-length EP2 or EP4 was cloned into the pcDNA3.1 vector; FLAG (N); expressed in transfected cells; host or cells: AD293 cells
Procedure, shortened: (§4)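 Read-out is GloSensor luminescence from AD293 cells co-expressing FLAG-tagged EP2 variant and GloSensor22F biosensor, transfected at a 1:1 plasmid ratio. Cells were plated at 4000 per well in CO2-independent medium containing 2% cAMP reagent, incubated 1 h at 37 °C, then read.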

EP4 V72A = molecular target: T6, EP4 V72A (Homo sapiens, UniProt P35408, V72A); experiment: as above
T6 construct: The full-length EP2 or EP4 was cloned into the pcDNA3.1 vector; FLAG (N); expressed in transfected cells; host or cells: AD293 cells

EP2 S86A = molecular target: T7, EP2 S86A (Homo sapiens, UniProt P43116, S86A); experiment: as above; conditions: for cAMP activity (∆pIC50 from EP2 WT): TG6-129, S86A
T7 construct: The full-length EP2 or EP4 was cloned into the pcDNA3.1 vector; FLAG (N); expressed in transfected cells; host or cells: AD293 cells
Procedure, shortened: as §4

EP4 V320A = molecular target: T8, EP4 V320A (Homo sapiens, UniProt P35408, V320A); experiment: as above; conditions: for remaining activity at […]: 1 h, read-out: % cAMP activity (normalized to WT)
T8 construct: The full-length EP2 or EP4 was cloned into the pcDNA3.1 vector (Invitrogen), incorporating an N-terminal FLAG tag; expressed in transfected cells; host or cells: AD293

[2] = 1 h, ligand log([M]) -6, Fig. S7B, read-out: % cAMP activity (normalized to WT)
[3] = 1 h, ligand log([M]) -10, Fig. S7B, read-out: % cAMP activity (normalized to WT)
[4] = 1 h, ligand log([M]) -11, Fig. S7B, read-out: % cAMP activity (normalized to WT)
[5] = 1 h, ligand log([M]) -5, Fig. S7B, read-out: % cAMP activity (normalized to WT)
[6] = 1 h, ligand log([M]) -12, Fig. S7B, read-out: % cAMP activity (normalized to WT)

T5 sequence (P43116 whole entry M116A): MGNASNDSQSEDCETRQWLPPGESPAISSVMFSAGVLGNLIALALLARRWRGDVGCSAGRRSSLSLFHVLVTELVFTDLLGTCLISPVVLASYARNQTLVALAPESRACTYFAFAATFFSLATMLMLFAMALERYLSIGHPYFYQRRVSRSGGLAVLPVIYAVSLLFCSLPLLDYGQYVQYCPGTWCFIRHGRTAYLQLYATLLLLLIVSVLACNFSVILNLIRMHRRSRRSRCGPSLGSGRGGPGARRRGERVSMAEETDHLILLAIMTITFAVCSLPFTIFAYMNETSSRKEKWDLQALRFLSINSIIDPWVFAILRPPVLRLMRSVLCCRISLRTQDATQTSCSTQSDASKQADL
T1 sequence (P43116 whole entry I85V): as the sequence (P43116 whole entry M116A) above, with I85V, A116M counted along it
T4 sequence (P35408 whole entry): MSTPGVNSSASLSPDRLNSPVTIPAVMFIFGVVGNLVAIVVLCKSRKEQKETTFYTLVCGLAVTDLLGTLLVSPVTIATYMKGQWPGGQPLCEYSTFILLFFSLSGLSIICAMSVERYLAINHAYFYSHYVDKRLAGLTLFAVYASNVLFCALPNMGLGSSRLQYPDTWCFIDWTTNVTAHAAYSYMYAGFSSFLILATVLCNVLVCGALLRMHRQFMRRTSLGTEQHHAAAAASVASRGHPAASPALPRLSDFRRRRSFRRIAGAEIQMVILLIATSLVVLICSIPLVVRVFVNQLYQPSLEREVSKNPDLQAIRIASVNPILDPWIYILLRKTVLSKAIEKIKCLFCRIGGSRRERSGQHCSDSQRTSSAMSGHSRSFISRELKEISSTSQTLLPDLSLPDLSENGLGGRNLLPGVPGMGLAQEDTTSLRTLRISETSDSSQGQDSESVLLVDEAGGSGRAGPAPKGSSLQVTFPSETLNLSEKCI
T3 sequence (P43116 whole entry M116L): as the sequence (P43116 whole entry M116A) above, with A116L counted along it
T7 sequence (P43116 whole entry S86A): as the sequence (P43116 whole entry M116A) above, with S86A, A116M counted along it
T8 sequence (P35408 whole entry V320A): as the sequence (P35408 whole entry) above, with V320A counted along it
T2 sequence (P43116 whole entry L301I): as the sequence (P43116 whole entry M116A) above, with A116M, L301I counted along it
T6 sequence (P35408 whole entry V72A): as the sequence (P35408 whole entry) above, with V72A counted along it

CCc1nnc(NS(=O)(=O)c2ccc(NC(=S)NC(=O)/C=C/c3ccc(F)cc3)cc2)s1 [TG6-129]
remaining activity at 1 µM (EP2-I85V; [2]): 12.2%
remaining activity at 0.0001 µM (EP2-I85V; [3]): 102%
remaining activity at 10 pM (EP2-I85V; [4]): 108%
cAMP activity (∆pIC50 from EP2 WT) (EP2-I85V; Appendix Fig. S7A): -0.555 and -0.639 and -0.556
remaining activity at 10 µM (EP2-L301I; [5]): 16.7%
remaining activity at 1 µM (EP2-L301I; [2]): 17.9%
remaining activity at 0.1 µM (EP2-L301I; 1 h, ligand log([M]) -7, Fig. S7B, read-out: % cAMP activity (normalized to WT)): 74.8%
remaining activity at 0.0001 µM (EP2-L301I; [3]): 111%
remaining activity at 10 pM (EP2-L301I; [4]): 123%
remaining activity at 1 pM (EP2-L301I; [6]): 120%
cAMP activity (∆pIC50 from EP2 WT) (EP2-L301I; Appendix Fig. S7A): -0.046 and -0.334 and -0.171
remaining activity at 10 µM (EP2-M116L; [5]): 12.1%
remaining activity at 0.0001 µM (EP2-M116L; [3]): 107%
remaining activity at 10 pM (EP2-M116L; [4]): 124%
remaining activity at 1 pM (EP2-M116L; [6]): 116%
cAMP activity (∆pIC50 from EP2 WT) (EP2-M116L; Appendix Fig. S7A): -0.454 and -0.463 and -0.341
IC50 [1]: 5.01 µM
remaining activity at 100 µM ([1]; 1 h, TG6-129 log([M]) -4.00, EP4-WT, read-out: % cAMP activity (normalized to WT)): 7.78%
remaining activity at […] ([1]; 1 h, TG6-129 log([M]) -4.70, EP4-WT, read-out: % cAMP activity (normalized to WT)): 22.1%
remaining activity at […] ([1]; 1 h, TG6-129 log([M]) -5.40, EP4-WT, read-out: % cAMP activity (normalized to WT)): 65.6%
remaining activity at […] ([1]; 1 h, TG6-129 log([M]) -6.10, EP4-WT, read-out: % cAMP activity (normalized to WT)): 88.8%
remaining activity at 0.1585 µM ([1]; 1 h, TG6-129 log([M]) -6.80, EP4-WT, read-out: % cAMP activity (normalized to WT)): 91.8%
remaining activity at 0.03236 µM ([1]; 1 h, TG6-129 log([M]) -7.49, EP4-WT, read-out: % cAMP activity (normalized to WT)): 96%
remaining activity at 0.006457 µM ([1]; 1 h, TG6-129 log([M]) -8.19, EP4-WT, read-out: % cAMP activity (normalized to WT)): 103%
remaining activity at 0.001288 µM ([1]; 1 h, TG6-129 log([M]) -8.89, EP4-WT, read-out: % cAMP activity (normalized to WT)): 106%
TG6-129 cAMP activity (∆pIC50 from EP4 WT) ([1]; WT, single experiments 1st-3rd): -0.065 and 0.051 and 0.101
IC50 (EP2 M116A): 0.513 µM
cAMP activity (∆pIC50 from EP2 WT) (EP2 M116A; Mean): -0.947
cAMP activity (∆pIC50 from EP2 WT) (EP2 M116A; single experiments 1st-3rd): -0.910 and -0.955 and -0.975
IC50 (EP4 V72A): 18.2 µM
remaining activity at 100 µM (EP4 V72A; 1 h, TG6-129 log([M]) -4.00, read-out: % cAMP activity (normalized to WT)): 12.5%
remaining activity at […] (EP4 V72A; 1 h, TG6-129 log([M]) -4.70, read-out: % cAMP activity (normalized to WT)): 22.1%
remaining activity at […] (EP4 V72A; 1 h, TG6-129 log([M]) -5.40, read-out: % cAMP activity (normalized to WT)): 49.5%
remaining activity at […] (EP4 V72A; 1 h, TG6-129 log([M]) -6.10, read-out: % cAMP activity (normalized to WT)): 51.9%
remaining activity at 0.1585 µM (EP4 V72A; 1 h, TG6-129 log([M]) -6.80, read-out: % cAMP activity (normalized to WT)): 46%
remaining activity at 0.03236 µM (EP4 V72A; 1 h, TG6-129 log([M]) -7.49, read-out: % cAMP activity (normalized to WT)): 55.5%
remaining activity at 0.006457 µM (EP4 V72A; 1 h, TG6-129 log([M]) -8.19, read-out: % cAMP activity (normalized to WT)): 65.3%
remaining activity at 0.001288 µM (EP4 V72A; 1 h, TG6-129 log([M]) -8.89, read-out: % cAMP activity (normalized to WT)): 49%
cAMP activity (∆pIC50 from EP4 WT) (EP4 V72A; TG6-129, V72A, Mean): -0.291
IC50 (EP2 S86A): 0.339 µM
remaining activity at 0.01 µM (EP2 S86A; 1 h, TG6-129 log([M]) -8, read-out: % cAMP activity (normalized to WT)): 39.3%
remaining activity at 0.0001 µM (EP2 S86A; 1 h, TG6-129 log([M]) -10, read-out: % cAMP activity (normalized to WT)): 51.4%
remaining activity at 1 pM (EP2 S86A; 1 h, TG6-129 log([M]) -12, read-out: % cAMP activity (normalized to WT)): 49.3%
cAMP activity (∆pIC50 from EP2 WT) (EP2 S86A; Mean): -0.714
cAMP activity (∆pIC50 from EP2 WT) (EP2 S86A; single experiments 1st-3rd): -0.638 and -0.681 and -0.823
IC50 (EP4 V320A): 13.5 µM
remaining activity at […] (EP4 V320A; TG6-129 log([M]) -4.70): 26.1%
remaining activity at […] (EP4 V320A; TG6-129 log([M]) -5.40): 66.6%
